Data taken from patent US20240324593A1, “OCTENIDINE COMPOSITIONS AND METHODS OF USE THEREOF” (Solventum Intellectual Properties Company, priority 2021, published 2024).
Where a name gives a salt, the structure may show the parent alone.

Key:
[1] = Homogeneity of the composition / precipitation of octenidine; type: physicochemical; conditions: aqueous composition of octenidine hydrochloride with enhancer
Experimental: Water and the carnitine enhancer (i.e., carnitine inner salt, carnitine tartrate tartaric acid, carnitine fumarate, or acetyl carnitine) to a 20 mL glass vial mixed with magnetic stirring. Octenidine hydrochloride (10% solution in 50:50 weight percentage methanol:water) was further added in the amount described in the tables below. The pH was adjusted using 1N HCL or NaOH. Glycerol (3 g) and Natrosol 250 HHX […] were added to a flask and mixed with a DAC 400 FVZ SPEEDMIXER dual asymmetric centrifuge mixer (from Flacktek, Inc Landrum, S.C.) at 2500 rpm for 30 seconds. The glycerol and Natrosol 250 HHX (1.3 g) were combined with the enhancer solution in a 40 gms Flack Tec cup and mixed for an additional 30 seconds at 2500 rpm. The resulting solutions were homogenous. Refer to Examples 1-36 below (total weight percentages of octenidine hydrochloride and carnitine enhancer within composition are provided in tables; glycerol about 8-9 wt %; Natrosol 250 HHX about 2-3 wt %; and water makes up the difference). The solutions of Examples 1-27 below were subjected to antimicrobial testing according to the method below.
As described above, aqueous compositions including only octenidine hydrochloride and a respective enhancer were also prepared (i.e., absent glycerol and Natrosol 250 HHX), similar to the formulations described in Tables 1-5. All compositions formed homogenous solutions. […]

[2] = Antimicrobial Efficiency Test, other antimicrobials with carnitine enhancers (Table 5); type: cell-based; conditions: with versus without carnitine enhancer
Experimental: Solutions of water, carnitine enhancer, and various other antimicrobials (i.e., chlorhexidine gluconate, benzalkonium chloride, polyhexamethylene biguanide) were prepared according to the procedure described immediately above.
Ex vivo porcine mucosa is transported to laboratory on ice pack and then trimmed and transferred in to RPMI 1640+2% PS media. A 5 mm biopsy punch is used to cut samples for assay. Remove most of the remaining muscle tissue with a fresh scalpel blade. Rinse 3× with 10±0.5 ml RPMI no ABX, no FCS. Transfer to incubator. Set up a 6 well plate with 1.5±0.2 mL RPMI (no ABX, no FCS) in each well and a 0.4 μm transwell insert. Transfer tissue explants mucosal side up to the insert (3 explants/well).
Passage overnight culture 1:10 into THB and return to shaking incubator for 2-3 hours. Remove 1 mL of passage culture from test tube and place in sterile microcentrifuge tube. Centrifuge (1±0.5 min at max speed) to pellet. Wash pellet with 1±0.1 mL RPMI, no ABX, no FCS. Centrifuge to pellet and re-suspend in 1±0.1 mL fresh RPMI. Check OD 600 to determine bacterial density and dilute as necessary to achieve ˜1E8 CFU/ml. Add bacteria: 2±1 μl per explant and return to incubator to infect 4±0.15 h.
Apply 50± μl of formulation per explant (mucosa side). Incubate at 37±2° C. for 24±0.5 h.
Remove tissue from transwells and place in appropriate neutralizer. Sonicate samples and vortex (30±5 second vortex, 2±0.1 minutes sonicate, and then 30±5 second vortex). Plate on Mannitol Salt Agar selective agar or Blood Agar at appropriate dilution and store dilutions at 4±2° C. The following day count plates and if TNTC, re-plate at higher dilution.

[3] = background statement; cited from earlier work
[4] = background statement; cited from earlier work; remark: listed apart in the source
[5] = background statement; cited from earlier work; remark: listed apart in the source
[6] = background statement; cited from earlier work; remark: listed apart in the source

C[N+](C)(C)C[C@H](O)CC(=O)[O-].O=C(O)/C=C/C(=O)O [carnitine fumarate, L-Carnitine fumarate]
homogenous solution or precipitation of octenidine [1]: resulted in the precipitation of octenidine

polyhexamethylene biguanide [polyhexamethylene biguanidine]
antimicrobial activity in the presence of carnitine enhancers (in words) [2]: performed better in the absence of carnitine enhancer

CCCCCCCCN=c1ccn(CCCCCCCCCCn2ccc(=NCCCCCCCC)cc2)cc1 [octenidine, octenidine hydrochloride]
antimicrobial efficacy relative to chlorhexidine [3]: 3-10 times | absorption through skin or mucous membranes [4]: not absorbed | contact dermatitis [5]: does not cause contact dermatitis | cytotoxicity relative to chlorhexidine [6]: less cytotoxic than chlorhexidine

benzalkonium chloride
antimicrobial activity in the presence of carnitine enhancers (in words) [2]: No effect

N=C(NCCCCCCNC(=N)NC(=N)Nc1ccc(Cl)cc1)NC(=N)Nc1ccc(Cl)cc1.O=C(O)[C@H](O)[C@@H](O)[C@H](O)[C@H](O)CO.O=C(O)[C@H](O)[C@@H](O)[C@H](O)[C@H](O)CO [chlorhexidine gluconate]
antimicrobial activity in the presence of carnitine enhancers (in words) [2]: performed better in the absence of carnitine enhancer
